# From patent publication US20260125387A1, “(R)-N-ETHYL-5-FLUORO-N-ISOPROPYL-2-((5-(2-(6-((2-METHOXYETHYL)(METHYL)AMINO)-2-METHYLHEXAN-3-YL)-2,6-DIAZASPIRO[3.4]OCTAN-6-YL)-1,2,4-TRIAZIN-6-YL)OXY)BENZAMIDE BESYLATE SALT” (Janssen Pharmaceutica NV, priority 2021, published 2026)
# Structures can show the parent of a compound that is named as a salt.
# Columns and labels:
# [1] = tested on: human pluripotent stem cell-derived cardiomyocytes (iCell Cardiomyocytes2); test: Ca2+-fluorescence assay in hSC-derived cardiomyocytes (CTCM human), hazard scoring; assay type: cell-based; design: key to Hazard scoring, Color @ 0.1 μM / Hazard scoring, Color @ 0.2 μM / Hazard scoring, Color @ 0.5 μM / Hazard scoring, Color @ 1 μM / Hazard scoring, Color @ 2.5 μM / Hazard scoring, Color @ 5 μM / Hazard scoring, Color @ 0.3 μM / Hazard scoring, Color @ 3 μM / Hazard scoring, Color @ 10 μM: Green: No concern; Yellow: Low concern; Red: High concern; Black: Very high concern due to arrhythmic events
# Protocol: 7) Cardio-Electrophysiological Effects of the Testing Compounds in Synchronously Beating Human Pluripotent Stem Cell-Derived Cardiomyocytes (hSC-CMs) Using a Ca^2+-Fluorescence Assay (CTCM human)
# Compounds were tested in the 96-well plates.
# Compounds were tested at 0.1 μM, 0.2 μM, 0.5 μM, 1 μM, 2.5 μM and 5 μM (n=4 per dose) on Cor.4U®-Cardiomyocytes or on iCell® Cardiomyocytes2.
# Alternatively, compounds were tested at 0.1 μM, 0.3 μM; 1 μM, 3 μM, 10 μM and 30 μM (n=4 per dose) mostly on iCell® Cardiomyocytes2.
# Vehicle control: Dimethylsulfoxide (DMSO). The solutions of the compound in DMSO or its solvent (final concentration of 0.1% DMSO; n=8).
# Tested compounds were dissolved in DMSO at 1000-fold the intended concentrations. A compound “mother-plate” was made, containing the test compounds and positive and negative controls at 1000-fold the final concentrations. At the experiment day, these stock solutions were diluted with Tyrode (Sigma), supplemented with 10 mM HEPES (Gibco), to 2-fold the intended concentration (in round bottom compound plates). Final DMSO concentration in test solutions and vehicle control was 0.1%.
# hSC-CMs (Cor.4U® Cardiomyocytes) were obtained from CDI (Ncardia, Germany). Cells are pre-plated and seeded in fibronectin-coated 96-well plates at a density suited to form a monolayer and maintained in culture in a stage incubator (37° C., 5% CO2), according to the instructions of the cell provider.
# Second line hSC derived cardiomyocyte called iCell® Cardiomyocytes2 were purchased from FUJIFILM Cellular Dynamics (USA). The experiments with test drugs are carried out 5 to 7 days after plating the cells onto the plate to have a living, beating monolayer of hiPSC-derived cardiomyocytes. The beating monolayer in 96-well-plates are normally taken from 2 Vials of frozen iCell® Cardiomyocytes2 (≈5 million cells/vial), which will be plated onto three 96-well plates (≈50K/well).
# At least one hour before the start of the experiments the normal cell medium was replaced with Tyrode solution with Calcium dye (see below).
# Cal 520 dye (AAT Bioquest) was dissolved in 11 ml of Tyrode supplemented with 10 mM HEPES and warmed up to 37 C before adding to the cells.
# 35 μl cell culture medium was removed from each well and replaced with 35 μl of pre-warmed Cal 520 dye solution and cell plate was incubated for 45 min at 37° C./5% CO2. Cells were incubated for 5 min at 37° C.
# Spontaneous electrical activity is recorded, using Cal520™ (AAT Bioquest) calcium fluorescence-dye signaling. This dye integrates the total intracellular calcium activity over the whole well. A bottle of Cal520 dye (50 μg, MW: 1103/mol) is dissolved with 50 μl DMSO as a stock solution of 0.9 mM. 50 μL of the stock solution of the dye was added to 10 ml Tryodes solution to have dye concentration of 4.5 μM. Subsequently, 35 μl of this dye solution was added into each well, to have a final dye concentration of 1.58 μM. The current dye protocol on this CTCM human assay was established recently (Ivan Kopljar et al, Journal of Pharmacological and toxicological methods 2018. 91: 80-86; Lu et al., Tox Sci 2019. 170 (2): 345-356).
# Fluorescent signals (Ca^2+ transient morphology) were measured using the Functional Drug Screen System (FDSS/pCell; Hamamatsu, Japan) and the recordings were subsequently analyzed off-line, using appropriate software e.g. Notocord.
# The cell plate was loaded into the FDSS/pCell for a test run: Ca^2+ transients were measured for 4 minutes to check for synchronous beating of the cardiomyocytes in each well. All 96 wells were measured simultaneously (sampling interval: 0.06 s, short exposure time: 10 ms; excitation wavelength 480 nm; emission wavelength 540 nm; FDSS/pCell warmed to 37° C.).
# During the compound addition step, 100 μl of the respective double-concentrated test solutions was pipetted into each well simultaneously.
# Data were analyzed off-line using appropriate software e.g. Notocord-Hem (version 4.3). […]
# [2] = tested on: OCI-AML3 tumors (disseminated, IV); test: Efficacy study in disseminated OCI-AML3 model (survival); assay type: in vivo, mouse; conditions: vehicle control 38.5 days
# Protocol: Doses were adjusted by individual body weight each day.
# Female SCID beige mice (CB17.Cg-PrkdcscidLystbg-J/Crl/−) were used when they were approximately 6 to 8 weeks of age and weighed approximately 25 g. All animals could acclimate and recover from any shipping-related stress for a minimum of 7 days prior to experimental use. Autoclaved water and irradiated food were provided ad libitum, and the animals were maintained on a 12 hour light and dark cycle. Cages, bedding, and water bottles were autoclaved before use and changed weekly. The tissue culture and cell injection reagents are summarized below in Table 14.
# Human AML cell line OCI-AML3 was cultured at 37° C., 5% CO2 in the indicated complete culture media (MEM Alpha+20% HI—FBS (Heat-Inactivated Fetal Bovine Serum)+2 mM L-glutamine+50 ug/ml Gentamycin). […]
# Animals were monitored daily for clinical signs related to either compound toxicity or tumor burden (i.e., hind limb paralysis, lethargy, etc.).
# Median survival was determined utilizing Kaplan-Meier survival analysis. […]
# Statistical significance for body weights was evaluated as described above. Statistical significance was evaluated for Kaplan-Meier survival plots comparing therapeutic treatment group vs. appropriate vehicle-treated control using log-rank (Mantel-Cox) test in R software version 3.4.2. […]
# KO-52 cells = test: Proliferation assay (spheroid, day 8 confluence), KO-52 control cell line; assay type: cell-based; conditions: Homo sapiens; 8 days; read-out: spheroid assay_OneTime KO-52 IC50
# Protocol: The anti-proliferative effect of menin/MLL protein/protein interaction inhibitor test compounds was assessed in human leukemia cell lines. The cell line MOLM-14 harbors a MLL translocation and expresses the MLL fusion protein MLL-AF9, respectively, as well as the wildtype protein from the second allele. OCI-AML3 cells that carry the NPM1c gene mutation were also tested. […] KO-52 was used as a control cell line containing two MLL (KMT2A) wildtype alleles in order to exclude compounds that display general cytotoxic effects.
# KO-52 and OCI-AML3 cell lines were propagated in alpha-MEM (Sigma Aldrich) supplemented with 20% heat-inactivated fetal bovine serum (HyClone), 2 mM L-glutamine (Sigma Aldrich) and 50 μg/ml gentamycin (Gibco).
# In order to assess the anti-proliferative effects, 200 MOLM-14 cells, 200 OCI-AML3 cells or 300 KO-52 cells were seeded in 200 μl media per well in 96-well round bottom, ultra-low attachment plates (Costar, catalogue number 7007). […] Spheroid like growth was measured in real-time by live-cell imaging (IncuCyteZOOM, Essenbio, 4× objective) acquiring images at day 8. Confluence (%) as a measure of spheroid size was determined using an integrated analysis tool.
# In order to determine the effect of the test compounds over time, the confluence in each well as a measure of spheroid size, was calculated. […]
# MOLM-14 cells = test: Proliferation assay (spheroid, day 8 confluence), MOLM-14; assay type: cell-based; conditions: Homo sapiens, 8 days, read-out: spheroid assay_OneTime MOLM-14 IC50
# [3] = Stability experiments under stress conditions (UHPLC purity, XRD); assay type: physicochemical; conditions: for XRD after stress: Reference Crystalline, form A
# [4] = iCell Cardiomyocytes2, 30 min incubation
# [5] = efficacious dose in mouse xenograft models of 30 mpk, (mouse, human)
smiles,measurement,setting,value
"CCN(C(=O)c1cc(F)ccc1Oc1nncnc1N1CCC2(C1)CN([C@H](CCCN(C)CCOC)C(C)C)C2)C(C)C [Compound A1, (R)—N-ethyl-5-fluoro-N-isopropyl-2-((5-(2-(6-((2-methoxyethyl)(methyl)-amino)-2-methylhexan-3-yl)-2,6-diazaspiro[3.4]octan-6-yl)-1,2,4-triazin-6-yl)oxy)-benzanilide 0.2 HCl·x H2O (x=2-3)]","Hazard scoring, Color @ 0.1 μM",[1]; [4],Green
same,"Hazard scoring, Color @ 0.3 μM","[1]; 0.3 μM, iCell Cardiomyocytes2, 30 min incubation",Green
same,"Hazard scoring, Color @ 1 μM",[1]; [4],Green
same,"Hazard scoring, Color @ 3 μM","[1]; 3 μM, iCell Cardiomyocytes2, 30 min incubation",Green
same,"Hazard scoring, Color @ 10 μM","[1]; 10 μM, iCell Cardiomyocytes2, 30 min incubation",Green
same,"Hazard scoring, Color @ 30 μM","[1]; 30 μM, iCell Cardiomyocytes2, 30 min incubation",yellow
same,Margin CTCM human 10 μM vs free Cmax,[1]; [5],> 16
same,Margin CTCM human 30 μM vs free Cmax,[1]; [5],> 45
"CCN(C(=O)c1cc(F)ccc1Oc1nncnc1N1CCC2(C1)CN([C@H](CCCN(C)CCOC)C(C)C)C2)C(C)C [Compound A3, (R)—N-ethyl-5-fluoro-N-isopropyl-2-((5-(2-(6-((2-methoxyethyl) (methyl)amino)-2-methylhexan-3-yl)-2,6-diazaspiro[3.4]octan-6-yl)-1,2,4-triazin-6-yl)oxy) benzamide oxalate]","Hazard scoring, Color @ 0.1 μM",[1]; [4],Green
same,"Hazard scoring, Color @ 0.2 μM","[1]; 0.2 μM, iCell Cardiomyocytes2, 30 min incubation",Green
same,"Hazard scoring, Color @ 0.5 μM","[1]; 0.5 μM, iCell Cardiomyocytes2, 30 min incubation",Green
same,"Hazard scoring, Color @ 1 μM",[1]; [4],Green
same,"Hazard scoring, Color @ 2.5 μM","[1]; 2.5 μM, iCell Cardiomyocytes2, 30 min incubation",Green
same,"Hazard scoring, Color @ 5 μM","[1]; 5 μM, iCell Cardiomyocytes2, 30 min incubation",Green
same,median days of survival,[2]; 30 mg/kg PO daily for 28 days,75.5 days
same,median days of survival,[2]; 50 mg/kg PO daily for 28 days,58.5 days
"CCN(C(=O)c1cc(F)ccc1Oc1nncnc1N1CCC2(C1)CN([C@H](CCCN(C)CCOC)C(C)C)C2)C(C)C [Compound A4, (R)—N-ethyl-5-fluoro-N-isopropyl-2-((5-(2-(6-((2-methoxyethyl)(methyl)amino)-2-methylhexan-3-yl)-2,6-diazaspiro[3.4]octan-6-yl)-1,2,4-triazin-6-yl)oxy)benzamide bis-besylate salt hydrate]",IC50,KO-52 cells,5440 nM
same,IC50,MOLM-14 cells,8 nM
same,Besylate salt Purity after stress,"[3]; 50° C./10% RH, 7 days, Reference 99.65",99.64
same,Besylate salt Purity after stress,"[3]; 50° C./10% RH, 14 days, Reference 99.65",99.62
same,Besylate salt Purity after stress,"[3]; 50° C./30% RH, 21 days, Reference 99.21",99.32
same,XRD after stress,"[3]; 50° C./30% RH, 21 days",Complies to ref
same,Besylate salt Purity after stress,"[3]; 50° C./50% RH, 7 days, Reference 99.65",99.65
same,Besylate salt Purity after stress,"[3]; 50° C./50% RH, 14 days, Reference 99.65",99.66
same,Besylate salt Purity after stress,"[3]; 50° C./75% RH, 21 days, Reference 99.21",99.36
same,XRD after stress,"[3]; 50° C./75% RH, 21 days",Complies to ref
same,"chemical and physical stability (UHPLC, XRD)",[3]; under evaluated stress conditions,chemically and physically stable
